Laboratory results taken from a melting point compilation (Tetko et al.; mined from patent text by program, amines drawn as free bases though some values may be those of a salt).

First: N#CC(C#N)C1(C#N)CCSc2ccccc21 (configuration not stated)
Second: Cn1ncc2c(c1=O)SCCNC2C(=O)Cc1ccccc1 (configuration not stated)
The melting point of the first is higher: 136 to 137 °C for the first, 133 °C for the second.

First: O=C(O)C(=O)c1cn(Cc2ccccc2)c2ccc(Oc3ccc(C(F)(F)F)cc3Cl)cc12
Second: O=C(O)CCCOc1ccc(CNC(=O)C2Cc3ccccc3N2S(=O)(=O)c2ccc(-c3cccc(C(F)(F)F)c3)cc2)cc1 (configuration not stated)
The melting point of the first is higher: 152 to 154 °C for the first, 78 to 80 °C for the second.

First: Brc1ccc(-c2nc3n(c2-c2ccc(Br)cc2)CCS3)cc1
Second: O=Cc1ccc(-c2ccc(Cl)cc2)cc1
The melting point of the first is higher: 208 to 210 °C for the first, 108 to 112 °C for the second.

First: Cc1cc(C(=O)N2CCCC2)ccc1[N+](=O)[O-]
Second: NC1=NCC(COc2ccccc2[N+](=O)[O-])O1 (configuration not stated)
The melting point of the first is lower: 61.3 to 61.9 °C for the first, 166 °C for the second.

First: O=C1Nc2ccc(-c3cccc(Cl)c3)cc2C(c2ccccc2)O1 (configuration not stated)
Second: Clc1ccc2c(c1)C(c1ccccc1)Nc1nccn1-2 (configuration not stated)
The melting point of the first is lower: 177 to 178 °C for the first, 239 to 241 °C for the second.

First: CS(=O)(=O)Nc1nc(-c2ccc(NS(C)(=O)=O)c(Sc3ccc(F)cc3F)c2)cs1
Second: CC(=O)c1ccc(NS(C)(=O)=O)c(C(=O)c2ccc(F)cc2F)c1
The melting point of the first is higher: 159 to 161 °C for the first, 114 to 117 °C for the second.

First: CC(C)c1[nH]nc(C(N)=O)c1[N+](=O)[O-]
Second: CC(C)NC(=O)NC(C)(C)C(=O)NCCO[N+](=O)[O-]
The melting point of the first is higher: 179 to 180 °C for the first, 120 to 122 °C for the second.

First: COC(=O)c1ccc(CO)nc1C1=NC(C)(C(C)C)C(=O)N1 (configuration not stated)
Second: COC(=O)c1cc(O)ccc1OC
The melting point of the first is higher: 115 to 118 °C for the first, 110 to 112 °C for the second.

First: CN(C)N=Nc1cc(-c2ccccc2)sc1C(N)=O
Second: COc1cccc(-c2ccccc2CNC(=O)C(C)C)c1
The melting point of the first is higher: 220 to 222 °C for the first, 103 to 105 °C for the second.

First: Oc1ccc(CBr)cc1-n1nc2ccccc2n1
Second: CC(=N)Nc1ccc2nc(-c3ccccc3)ncc2c1
The melting point of the first is higher: 169 to 171 °C for the first, 162 to 164 °C for the second.

First: CC(c1ccccc1)C(C(=O)c1ccccc1)n1cncn1 (configuration not stated)
Second: CN1C(=O)[C@H](NC(=O)CCc2cccc(Cl)c2)N=C(c2ccccc2)c2ccccc21
The melting point of the first is higher: 166 to 168 °C for the first, 157 to 159 °C for the second.

First: COc1ccc(OCCCBr)c(C2Sc3ccccc3N(C)C2=O)c1 (single isomer, unassigned; (-))
Second: COc1ccc2c(c1)Sc1cc(OC)ccc1N2CCC#N
The melting point of the first is lower: 77 to 78 °C for the first, 111 to 113 °C for the second.

First: Cc1ccc(C=CCN2CCc3nc(N)sc3CC2)cn1
Second: CCOC(=O)N1CCC(Nc2nc3ccccc3n2Cc2csc(C)n2)CC1
The melting point of the first is higher: 180 to 184 °C for the first, 160 °C for the second.

First: O=C1CC(c2cccc(OCc3ccccc3)c2)=Nc2ccc(N3CCOCC3)cc21
Second: O=C(NCc1ccccc1N1CCOCC1)c1ccn2nc(-c3ccccc3)cc2n1
The melting point of the first is higher: 283 to 285 °C for the first, 190 to 192 °C for the second.

Compared with CCc1ccc(-c2oc3cccc4c3c2C=CC4=O)cc1, CCOC(=O)CN1C(=O)c2cccc3c(Br)ccc1c23 is lower in melting point: 186 °C for the first, 128 to 130 °C for the second.

Compared with CSc1ccc(-n2c(-c3ccccn3)nc(SC)c(C#N)c2=O)cc1, Cc1ccccc1-c1nccc2c(CC#N)cccc12 is lower in melting point: 158 to 161 °C for the first, 120 °C for the second.

First: O=C1NC(=O)C(=Cc2ccc(SCCc3ccccc3)cc2)S1
Second: O=Cc1ccc2cc(OCc3ccccc3)ccc2c1
The melting point of the first is higher: 182 to 183 °C for the first, 107 to 108 °C for the second.

First: CC12CCC3c4cc(C=O)c(OCc5ccccc5)cc4CCC3C1CCC2OCc1ccccc1 (configuration not stated)
Second: COC(=O)c1cc(OCc2ccccc2)c(OCc2ccccc2)c(CSCC(=O)O)n1
The melting point of the first is higher: 145 to 147 °C for the first, 135 °C for the second.

First: CNC(=O)N(C)c1nc2c(s1)C(=O)CC(C)(C)C2
Second: CC(=O)Nc1cccc(C2=NNC(=O)C3CC23)c1 (configuration not stated)
The melting point of the first is lower: 174 to 175 °C for the first, 200 to 202 °C for the second.

First: CC1(C)CC(O)CC(C)(C)N1OC(=NC1CCCCC1)NC1CCCCC1
Second: O=C(O)CC1CCC(N2CCN(c3ccncc3)CC2)CC1 (configuration not stated)
The melting point of the first is lower: 157 to 161 °C for the first, 225 to 227 °C for the second.

Compared with COC(=O)COc1ccsc1-c1nsc2ccc(-n3c(=O)cc(C(F)(F)F)n(C)c3=O)cc12, CCOc1nn(-c2ccc(C(F)(F)F)cn2)cc1CCCOc1cc(CC(=O)O)n(C)n1 is higher in melting point: 73 to 79 °C for the first, 151 to 152 °C for the second.

First: Cc1cc(C2=NOC(c3cc(Cl)cc(Cl)c3)(C(F)(F)F)C2)ccc1F (configuration not stated)
Second: Cc1cccc(NC(=O)c2cc(Cl)cc(C)n2)c1
The melting point of the first is lower: 72 to 74 °C for the first, 95 °C for the second.

Compared with NC(=O)C(=O)Nc1nc(-c2cc3ccccc3oc2=O)cs1, CCOC(=O)C(=C1SC(=O)N(CC(=O)O)C1=O)c1csc(NC(C)=O)n1 is lower in melting point: 297 to 300 °C for the first, 288 to 290 °C for the second.

First: COc1ccnc(-c2ccccc2S(=O)c2nc3cc(N)ccc3[nH]2)c1 (configuration not stated)
Second: CCCOc1ccccc1-c1ccc(-c2nnn[nH]2)c(=O)[nH]1
The melting point of the first is lower: 192 to 193 °C for the first, 229 to 231 °C for the second.

Compared with CN(C)CC(C)(CSC(=S)N(C)C)[N+](=O)[O-] (configuration not stated), CCOP(=S)(OCC)Oc1nsc(C)c1C(N)=O is lower in melting point: 75.5 to 78 °C for the first, 68 °C for the second.

First: COCCCOc1cc(CBr)ccc1OC
Second: COc1ccc(C(=O)Nc2ccc(-c3ccc(C)cc3Cl)cc2)cc1CCCN(C)C
The melting point of the first is lower: 50 to 51 °C for the first, 63 to 66 °C for the second.

Compared with O=C(O)c1cccnc1N1CCN(CCOCCO)CC1, O=C(O)CCc1ccc(CCN2CCN(S(=O)(=O)c3ccccc3)CC2)cc1 is higher in melting point: 172 to 174 °C for the first, 177 to 178 °C for the second.

First: CSc1cc2c(cc1C(F)(F)F)N(C(=O)Nc1cccc(C(=O)NCCN3CCCC3)c1)CC2
Second: CNCc1cccc(C2CCN(c3cc4c(cc3F)c(=O)c(C(=O)O)cn4C3CC3)C2)c1 (configuration not stated)
The melting point of the first is lower: 91 to 93 °C for the first, 239 to 240 °C for the second.

First: CCCCOC(=O)C1CC2CC(CP(=O)(O)O)CCC2CN1 (configuration not stated)
Second: CCC12CC(Cl)C3C4CCC(=O)C=C4CCC3C1C(OC(C)=O)CC2=O (configuration not stated)
The melting point of the first is higher: 161 to 169 °C for the first, 125 °C for the second.

Compared with CC1=C(C#N)S(=O)(=O)c2ccc(F)cc2N1, O=c1[nH]c2cccnc2n1-c1cc(F)ccc1F is lower in melting point: 261 to 263 °C for the first, 229 °C for the second.

First: CC(C)(Sc1nc(N)cc(Cl)n1)c1ccccn1
Second: CNc1nc(Br)cc(S(=O)(=O)c2ccccc2)n1
The melting point of the first is higher: 183 to 184 °C for the first, 142 to 143 °C for the second.

Compared with CCCCc1nc2cnc3cccnc3c2n1CCOc1ccccc1, CSC1=Nc2ccccc2C(=O)N(C)C1c1ccccc1 (configuration not stated) is lower in melting point: 150 °C for the first, 130 to 132 °C for the second.

Compared with COC(=O)c1c(-c2ccc(C)cc2)ccnc1O, CCOC(=O)c1ccc(-c2cccc(O)c2)c(C(C)(C)C)c1 is lower in melting point: 222 to 224 °C for the first, 118 to 120 °C for the second.

First: Cc1ccccc1C(=O)Nc1ccc(C(=O)N2Cc3ccc(Cl)n3Cc3ccccc32)cc1
Second: NC(=O)N(O)CCNC(=O)c1ccc(-c2ccccc2)cc1
The melting point of the first is higher: 185 to 187 °C for the first, 160 to 162 °C for the second.

First: COCC1CN(c2cccnc2)C(=O)O1 (racemic)
Second: N#Cc1ccc(N2CC(C(=O)N3CCN(CC(=O)OCc4ccccc4)CC3)OC2=O)cc1 (configuration not stated)
The melting point of the first is lower: 65 to 66 °C for the first, 131 to 132 °C for the second.

Compared with COc1cc(OC)c(C2CCN(C)CC2OC(C)=O)c(Oc2cccs2)c1C(C)=O (configuration not stated), COc1ccc2c(c1OC(C)=O)N=CC1CCCN1C2=O (configuration not stated) is lower in melting point: 153 to 154 °C for the first, 144 to 146 °C for the second.

First: CCOC(=O)c1ccc(C#Cc2ccc3c(c2)C(C)(C)CCC3(C)C)cc1
Second: CCOC(=O)CN(CCc1ccccc1)C(=O)[C@@H]1C[C@@H](SC(C)=O)CN1S(=O)(=O)c1ccc2ccccc2c1
The melting point of the first is higher: 137 to 138 °C for the first, 119 to 120 °C for the second.

First: C(CCCN1CCCNC1)CCCN1CCCNC1
Second: c1ccc(-c2cc3cccc(CSCCN4CCCCC4)c3o2)cc1
The melting point of the first is lower: 52 to 53 °C for the first, 64.5 to 65.5 °C for the second.

First: CN1CC=C(c2c[nH]c3ccc(-c4cnc5[nH]cc(C(=O)C(C)(C)C)c5n4)cc23)CC1
Second: CNc1nc(-c2cccc(-c3cncc(S(C)=O)c3)c2)c2cc(OC)c(OC)cc2n1 (configuration not stated)
The melting point of the first is higher: 263 to 265 °C for the first, 208 to 210 °C for the second.

Compared with NS(=O)(=O)c1ccc(C2=C(c3ccc(F)cc3)CCC2)cc1, Cc1c(NC(=O)c2ccc(OCc3ccc(F)cc3)cc2)ccc2cc(CN3CCCCC3)cnc12 is lower in melting point: 173 to 174 °C for the first, 159 to 160 °C for the second.

First: COc1ccc2nc(SCc3nccc(N4CCOCC4)c3Cl)[nH]c2n1
Second: COc1cc2c(=O)n(CCN3CCCC3)c3c4cc5c(cc4nnc3c2cc1OC)OCO5
The melting point of the first is lower: 210 °C for the first, 229 °C for the second.

Compared with O=C1CCC(N2Cc3c(OCc4ccc(CN5CCN(c6ccccn6)C(=O)C5)cc4)cccc3C2=O)C(=O)N1 (configuration not stated), COc1ccc(-c2cccc3c2C2(COc4cc5c(cc42)OCCO5)C(=O)N3Cc2ccccn2)cc1 (configuration not stated) is lower in melting point: 224 to 226 °C for the first, 205 to 206 °C for the second.

First: CCCn1c(=O)c(C#N)c(Cl)c2ccccc21
Second: CS(=O)(=O)CCN1C(=O)CN=C(c2ccccc2F)c2cc(Cl)ccc21
The melting point of the first is higher: 203 to 205 °C for the first, 155 to 156 °C for the second.

First: Cc1cc(CBr)cc(Oc2nc(Cl)nc(Cl)c2C(C)C)c1
Second: Cn1nc(-c2nc(C=O)c(Cl)cc2F)c(Cl)c1OC(F)F
The melting point of the first is lower: 98 to 101 °C for the first, 120 to 121 °C for the second.

Compared with COc1cc(NC(=S)Nc2ccccc2)ccn1, Cc1cccc2c1-c1ccccc1C2CO (configuration not stated) is lower in melting point: 138 to 141 °C for the first, 120 to 122 °C for the second.

First: N#Cc1c(N)cccc1Sc1cccc(N)c1
Second: CC(O)C(C)N=[N+]([O-])c1ccc(O)cc1 (configuration not stated)
The melting point of the first is lower: 99 to 100 °C for the first, 124 to 125 °C for the second.

First: CCCC(=O)NC1Cc2ccc(-c3ccc(=O)[nH]n3)cc2C1 (configuration not stated)
Second: O=C1CNN(c2cc(Cl)c(C(C(=O)O)c3ccc(Cl)cc3)c(Cl)c2)C(=O)N1 (configuration not stated)
The melting point of the first is higher: 228 to 229 °C for the first, 194 °C for the second.

First: OCC1OC(n2cnc3c(NNC4CCOc5ccccc54)ncnc32)C(O)C1O (configuration not stated)
Second: O=C(NCC12CC3CC(CC(C3)C1)C2)c1c(Cl)ccc2nc(N3CCC[C@@H](C(=O)O)C3)ccc12
The melting point of the first is lower: 125 to 130 °C for the first, 257 to 262 °C for the second.

First: Cc1nn(-c2cc(Oc3ccc(O)cn3)c(Cl)cc2F)c(=O)n1C(F)F
Second: C=CCc1ccc(C(NC(C)=O)C(=O)OC)cc1O (configuration not stated)
The melting point of the first is higher: 179 to 181 °C for the first, 143 to 145 °C for the second.

Compared with CCSc1ncc(S(N)(=O)=O)s1, Nc1nc(Cc2cccs2)no1 is higher in melting point: 95 to 96 °C for the first, 132 to 133 °C for the second.

Compared with O=C(Nc1ccc(CCCCn2ccnn2)cc1)c1coc(C=Cc2ccc(C(F)(F)F)cc2)n1, CC(C)(C)OC(=O)NC(Cc1ccccc1)C(O)C(Cc1ccccc1)NC(=O)[C@H](CC(N)=O)NC(=O)OCc1ccccc1 (some centres not stated) is higher in melting point: 183 to 185 °C for the first, 216 to 217 °C for the second.
